# Source: patent publication US4317768A, “Dihydropyridine derivatives as stabilizers for vinyl chloride polymers” (priority 1977, dated 1982)
# “Also recorded” adds a separate entry of the source.
# What was measured:
# [1] = Stabilization of plastified vinyl resins (pressed plates); conditions: plastified resin
# Procedure: This study was carried out by pressing plates from sheets which had been mixed for 5 minutes at 180° C., the pressing also lasting 5 minutes but at 170° C.
# The same parameters as hereabove were studied, namely the duration of the stability of the colour, the duration of the thermostability and the colour of the pressed plate.
# [2] = Antioxidant power on a polyvinyl chloride resin, GARDNER method, 185° C.
# [3] = Thermostability, rigid co-polymer (e), ventilated oven 210° C.; conditions: 0.3 part
# Procedure: (§1) The study of the static thermostability of vinyl co-polymers was carried out according to the GARDNER method described above and, also in a more detailed manner in British Patent No. 1,489,685.
# (e) Rigid co-polymer vinyl chloride-vinylidene chloride
# (§2) The following compound was prepared:
# The sheets were heated in a ventilated oven at 210° C. and the following results were obtained: […]
# [4] = Comparison with stabilizer G1, rigid co-polymer (12.5 to 13.5% of acetate), 0.5 part, 185° C.
# Excerpt: Another comparison was made with the following rigid co-polymer: […]
# [5] = Comparison with stabilizer G1, rigid co-polymer, 0.5 part, 185° C.
# Excerpt: (b) Comparison with stabilizer G1
# Stabilizer G1 is a mixture of 1,4-butanediol-β-aminocrotonate and of β-aminocrotonate of alcohols containing from 16 to 18 carbon atoms.
# [6] = Antioxidant power on a polyvinyl chloride resin, GARDNER method, 185° C.; remark: listed apart in the source
# Procedure: By direct comparison, on a polyvinyl chloride resin, of the antioxidant power of Compound 1 of the invention and that of an antioxidant known as one of the most valuable and frequently used in polyvinyl chloride, namely 2,6-diterbutyl-4-methyl-phenol.
# The antioxidant power of Compound 1 was compared to that of 2,6-diterbutyl-4-methyl-phenol (Compound 2) by using the following resin:
# The study was carried out according to the GARDNER method, the samples being removed from an oven at 185° C. every 10 minutes over a period of 80 minutes.
# The signs + and - have the same meanings as in the previous table and > 2 means that the coloration lies between 2 and 2+.
# [7] = Thermostability, rigid co-polymer (d), ventilated oven 210° C.; conditions: 0.3 part
# Procedure: as §1
# (d) Rigid co-polymer vinyl chloride-vinylidene chloride
# as §2
# The sheets were heated in a ventilated oven at 210° C.
# [8] = Comparison with 2-phenyl-indole, vinyl chloride-vinyl acetate co-polymer, 185° C.; conditions: 0.3 part
# Procedure: (c) Comparison with 2-phenyl-indole
# A comparative test was made using the following compound:
# (§3) The sheets were heated in a ventilated oven at 185° C. and the following results were obtained: […]
# [9] = Photostabilizing power, tetrahydrofuran solution of plates exposed to the sun, French Pharmacopeia
# Procedure: The photostabilizing power of the compounds of the invention was studied by exposing to the sun polyvinyl chloride plates which had been stabilized either by a dihydropyridine of the invention or by 2-phenyl-indole, or again by 2-(3'-methoxy-4'-hydroxy)-indole. This last product is an extremely valuable thermostabilizer for thermoplastic resins and is described in British Pat. No. 1,489,685.
# The resin given hereunder was prepared by mixing on cylinders at 160° C.:
# The plates of stabilized polyvinyl chloride, together with a plate which had not been stabilized, were stood in the sun under the same conditions and at the same time. Their colour was measured after 6 hours and 12 hours of exposure.
# The coloration of the plates was determined according to two methods:
# On a solution of these plates in tetrahydrofuran, the coloration of th solution being measured according to the French Pharmacopeia (IXth edition, II-338).
# [10] = Comparison with 1,4-butanediol-β-aminocrotonate and methyl-β-aminocrotonate, rigid co-polymer, 185° C.; conditions: 0.5 part
# Procedure: (a) Comparison with 1,4-butanediol-β-aminocrotonate and with methyl-β-aminocrotonate.
# The following rigid co-polymer was prepared:
# as §3
smiles,measurement,setting,value
"C=CCOC(=O)C1=C(C)NC(C)=C(C(=O)OCC=C)C1 [Compound 1, 2,6-Dimethyl-3,5-dicarboallyloxy-1,4-dihydropyridine]","influence on stability / basic colour of the plate, in words",[1],favourable influence on the stability of the plate; also recorded: favourable influence on the basic colour
same,"antioxidant power, Compound 1 vs Compound Z, in words",[2],superior to Compound Z at every concentration
same,"coloration, GARDNER scale",[3]; 0 min,1
same,"coloration, GARDNER scale",[3]; 3 min,1
same,"coloration, GARDNER scale",[3]; 6 min,2
same,"coloration, GARDNER scale",[3]; 9 min,4
same,"coloration, GARDNER scale",[3]; 12 min,10
same,"coloration, GARDNER scale",[4]; 0 min,1
same,"coloration, GARDNER scale",[4]; 2 min,1
same,"coloration, GARDNER scale",[4]; 4 min,2
same,"coloration, GARDNER scale",[4]; 6 min,3
same,"coloration, GARDNER scale",[4]; 10 min,12
same,"coloration, GARDNER scale",[4]; 12 min,18
same,"coloration, GARDNER scale","[4]; column without printed time, between 6 and 10 min",7
same,"coloration, GARDNER scale",[5]; 0 min,1
same,"coloration, GARDNER scale",[5]; 2 min,1
same,"coloration, GARDNER scale",[5]; 4 min,2
same,"coloration, GARDNER scale",[5]; 6 min,6
same,"coloration, GARDNER scale",[5]; 8 min,10
same,"coloration, GARDNER scale",[5]; 10 min,13
same,"coloration, GARDNER scale",[5]; 12 min,17
same,"coloration, GARDNER scale","[6]; 0.05 part, 0 min",1
same,"coloration, GARDNER scale","[6]; 0.05 part, 10 min",1
same,"coloration, GARDNER scale","[6]; 0.05 part, 60 min",7
same,"coloration, GARDNER scale","[6]; 0.05 part, 70 min",8
same,"coloration, GARDNER scale","[6]; 0.1 part, 0 min",1
same,"coloration, GARDNER scale","[6]; 0.1 part, 10 min",1
same,"coloration, GARDNER scale","[6]; 0.1 part, 30 min",< 2
same,"coloration, GARDNER scale","[6]; 0.1 part, 60 min",7
same,"coloration, GARDNER scale","[6]; 0.1 part, 70 min",7
same,"coloration, GARDNER scale","[6]; 0.2 part, 0 min",1
same,"coloration, GARDNER scale","[6]; 0.2 part, 10 min",1
same,"coloration, GARDNER scale","[6]; 0.2 part, 20 min",1
same,"coloration, GARDNER scale","[6]; 0.2 part, 40 min",2
same,"coloration, GARDNER scale","[6]; 0.2 part, 50 min",3
same,"coloration, GARDNER scale","[6]; 0.2 part, 60 min",5
same,"coloration, GARDNER scale","[6]; 0.2 part, 70 min",> 6
same,"coloration, GARDNER scale","[6]; 0.3 part, 0 min",1
same,"coloration, GARDNER scale","[6]; 0.3 part, 10 min",1
same,"coloration, GARDNER scale","[6]; 0.3 part, 20 min",1
same,"coloration, GARDNER scale","[6]; 0.3 part, 30 min",1
same,"coloration, GARDNER scale","[6]; 0.3 part, 40 min",2
same,"coloration, GARDNER scale","[6]; 0.3 part, 50 min",> 2
same,"coloration, GARDNER scale","[6]; 0.3 part, 60 min",8
same,"coloration, GARDNER scale","[6]; 0.3 part, 70 min",8
same,"coloration, GARDNER scale","[6]; 0.4 part, 0 min",1
same,"coloration, GARDNER scale","[6]; 0.4 part, 10 min",1
same,"coloration, GARDNER scale","[6]; 0.4 part, 20 min",1
same,"coloration, GARDNER scale","[6]; 0.4 part, 30 min",1
same,"coloration, GARDNER scale","[6]; 0.4 part, 60 min",4
same,"coloration, GARDNER scale","[6]; 0.4 part, 70 min",8
same,"coloration, GARDNER scale","[6]; 0.5 part, 0 min",1
same,"coloration, GARDNER scale","[6]; 0.5 part, 10 min",1
same,"coloration, GARDNER scale","[6]; 0.5 part, 20 min",1
same,"coloration, GARDNER scale","[6]; 0.5 part, 30 min",> 1
same,"coloration, GARDNER scale","[6]; 1.0 part, 0 min",1
same,"coloration, GARDNER scale","[6]; 1.0 part, 10 min",1
same,"coloration, GARDNER scale","[6]; 1.0 part, 20 min",1
same,"coloration, GARDNER scale","[6]; 1.0 part, 30 min",1
same,"coloration, GARDNER scale","[6]; 1.0 part, 50 min",4
same,"coloration, GARDNER scale","[6]; 1.0 part, 60 min",8
"CC1=C(C(=O)OCc2ccccc2)CC(C(=O)OCc2ccccc2)=C(C)N1 [Compound 21, 2,6-Dimethyl-3,5-dicarbobenzyloxy-1,4-dihydropyridine]","coloration, GARDNER scale",[7]; 0 min,1.5
same,"coloration, GARDNER scale",[7]; 3 min,2
same,"coloration, GARDNER scale",[7]; 6 min,2
same,"coloration, GARDNER scale",[7]; 9 min,3
same,"coloration, GARDNER scale",[7]; 12 min,7
same,"coloration, GARDNER scale",[7]; 15 min,15
same,"coloration, GARDNER scale",[8]; 0 min,1
same,"coloration, GARDNER scale",[8]; 2 min,1
same,"coloration, GARDNER scale",[8]; 4 min,2
same,"coloration, GARDNER scale",[8]; 6 min,3
same,"coloration, GARDNER scale",[8]; 8 min,7
same,"coloration, GARDNER scale",[8]; 10 min,10
same,"coloration, GARDNER scale",[8]; 12 min,12
same,"coloration, GARDNER scale",[8]; 14 min,16
same,Coloration of the plates FRENCH PHARMACOPEIA,[9]; exposure to sun 0,JV6
same,Coloration of the plates FRENCH PHARMACOPEIA,[9]; exposure to sun 6h,JV6
same,Coloration of the plates FRENCH PHARMACOPEIA,[9]; exposure to sun 12h,JV5
same,"coloration, GARDNER scale",[10]; 0 min,1
same,"coloration, GARDNER scale",[10]; 2 min,1
same,"coloration, GARDNER scale",[10]; 4 min,4
same,"coloration, GARDNER scale",[10]; 6 min,6
same,"coloration, GARDNER scale",[10]; 8 min,11
same,"coloration, GARDNER scale",[10]; 10 min,13
same,"coloration, GARDNER scale",[10]; 12 min,17
